Source: patent US9744165B2, “Method for treating hypertension” (TSH Biopharm Corporation Ltd., priority 2010, dated 2017)

Tests used:
[1] = test system: spontaneous hypertensive rats (SHR); experiment: Anti-hypertensive efficacy of monotherapy and combined therapy in spontaneous hypertensive rats (tail-cuff blood pressure); assay type: in vivo, rat
Method: An in vivo study was conducted to measure and compare the anti-hypertensive efficacy and tolerability of dextromethorphan and amlodipine in monotherapy and combined therapy in spontaneous hypertensive rats, an animal model for hypertension. The same study can be performed with other NADPH oxidase inhibitor and CCB.
Aged 18-week male normotensive Wistar Kyoto (WKY) and spontaneous hypertensive rats (SHR) were used in this study.
Untreated WKY and SHR were compared with SHR treated with amlodipine (1, 5 mg/kg/day) or dextromethorphan (1, 5, 25 mg/kg/day) and fix dose combination (AM+DM) using a matrix combination of above doses for 4 weeks. All the treatment groups are listed in Table 1, including G1˜G12 for SHR and G0 for WKY as a control.
Control rats (G0 and G1) received 1% solution of methylcellulose (1 ml/kg) by a gavage as a vehicle. AM and DM were suspended in 1% solution of methylcellulose and administered by a gavage in a 1 ml/kg volume. All compounds were administered for 4 weeks. Arterial blood pressure measurement and blood sampling were carried out before treatment, and after the second and forth week of drug administration.
Arterial blood pressure was measured in conscious rats with an automatic sphygmomanometer, using tail-cuff method. Before the measurements, the animals were placed inside a warming chamber (about 34° C.) for 30 min. The aim of the procedure is to calm the animals and dilate the tail blood vessels. Arterial blood pressure was measured at least three times for each animal. Changes in pressure are expressed as the percentage of baseline values.
Arterial blood pressure and blood sampling will be measured before treatment, and after the second and forth week of drug administration (FIG. 6).
Results are expressed as mean±SD. The normality of distribution was checked by means of Kolmogorov-Smirnov test with Lilliefors test. The statistical evaluation was performed using analysis of variance (ANOVA) and post hoc comparisons were performed by means of Least Significant Differences (LSD) test. If the data were not normally distributed, statistical evaluation was performed by using ANOVA (Kruskall-Wallis) and Mann-Whitney U test. Differences were considered significant when p<0.05.

[2] = test system: apolipoprotein E (apoE)-deficient mice; conditions: cited from earlier work
[3] = test system: animal models of hypertension; conditions: cited from earlier work

COc1ccc2c(c1)[C@]13CCCC[C@@H]1[C@H](C2)N(C)CC3 [DM, (+)-3-methoxy-17-methyl-9α,13α,14α-morphinan]
blood pressure lowering effect (SBP, DBP, MBP) ([1]; DM alone at 1, 5 and 25 mg/kg/day by gavage for 4 weeks, FIGS. 1a-d): resulted in lowering of the blood pressure | dosage response of blood pressure lowering ([1]; DM alone, 1 vs 5 vs 25 mg/kg/day): no clear dosage response was observed | superoxide production ([2]; aorta and carotid artery of apoE-deficient mice): decreases superoxide production | oxidative stress, atherosclerosis and neointima formation ([2]; mice, through direct inhibition of NADPH oxidase): reduces oxidative stress and inhibits atherosclerosis and neointima formation

COc1cc(C(C)=O)ccc1O [apocynin]
blood pressure [3]: decrease blood pressure

CCOC(=O)C1=C(COCCN)NC(C)=C(C(=O)OC)C1c1ccccc1Cl (stereo not shown) [AM, 3-ethyl 5-methyl 2-[(2-aminoethoxy)methyl]-4-(2-chlorophenyl)-1,4-dihydro-6-m ethylpyridine-3,5-dicarboxylate]
blood pressure lowering effect (SBP, DBP, MBP) ([1]; AM alone at 1 and 5 mg/kg/day by gavage for 4 weeks, FIGS. 2a-d): resulted in lowering of the blood pressure | dosage response of blood pressure lowering ([1]; AM alone, 1 vs 5 mg/kg/day): more pronounced with the higher dose
